From PMC7864055, “Biochemical and biophysical analyses of hypoxia sensing prolyl hydroxylases from Dictyostelium discoideum and Toxoplasma gondii” (The Journal of Biological Chemistry, 2021) come the findings set out here.

The target of one experiment is T1, DdPhyA (Dictyostelium discoideum, UniProt Q86KR9).
T1 construct: gene phyA; full-length aa 1-284, E. coli BL21 Gold (DE3), N-terminal His6-ZBasic tag cleaved by TEV, EDTA-treated to remove metal
In words: differential scanning fluorimetry, SYPRO Orange. Format: binding. The following applies: with metal (Ni(II)); 25-80 °C; construct (full-length or truncated) not told in main text. In general terms: Differential scanning fluorimetry follows unfolding on heating by fluorescence.

The target of experiment [1] is T2, TgPhyA (Toxoplasma gondii, UniProt A0A7J6K353).
T2 construct: gene TGRH88_076950; full-length, recombinant; purification in Supporting information
T2 sequence (A0A7J6K353 1-271): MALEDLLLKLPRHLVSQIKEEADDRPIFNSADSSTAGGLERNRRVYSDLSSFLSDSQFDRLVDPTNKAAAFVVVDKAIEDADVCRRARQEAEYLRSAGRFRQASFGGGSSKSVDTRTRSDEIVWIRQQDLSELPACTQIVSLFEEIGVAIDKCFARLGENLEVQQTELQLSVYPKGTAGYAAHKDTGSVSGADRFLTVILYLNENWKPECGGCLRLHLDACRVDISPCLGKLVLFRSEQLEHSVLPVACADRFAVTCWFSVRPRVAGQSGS
Nature of the experiment: differential scanning fluorimetry, SYPRO Orange. Format: binding. The note with it: with metal (Ni(II)); 25-80 °C.

A further experiment addresses T3, DdPhyA(60-284) (Dictyostelium discoideum, UniProt Q86KR9).
T3 construct: gene phyA; catalytic domain residues 60-284 (once printed 60-286), E. coli, His6-ZBasic tag cleaved; 3 molecules per asymmetric unit; Ni(II) substituting for Fe(II)
In words: X-ray crystallography, […] Å. Format: binding. The note with it: Ni(II) in place of Fe(II); active site, bidentate to metal, no Skp1 substrate. An excerpt: The C-5 carboxylate of NOG is bound

The target in experiment [2] is T2, TgPhyA. In words: 1H NMR of 2OG conversion to succinate. It counts as biochemical. The note with it: uncoupled (no Skp1); enzyme 20 μM, 2OG 500 μM, Fe(II) 50 μM, ascorbate 1 mM, Tris-D11 pH 7.5, room temperature.

T3 sequence (Q86KR9 60-284): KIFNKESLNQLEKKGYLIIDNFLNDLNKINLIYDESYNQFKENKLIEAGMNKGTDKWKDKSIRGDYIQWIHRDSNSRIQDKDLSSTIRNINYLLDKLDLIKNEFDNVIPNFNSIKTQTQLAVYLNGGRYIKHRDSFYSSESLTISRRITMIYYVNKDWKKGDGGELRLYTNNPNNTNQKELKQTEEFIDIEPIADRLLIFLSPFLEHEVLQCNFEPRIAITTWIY
T1 sequence (Q86KR9 whole entry, the tested form may be a part): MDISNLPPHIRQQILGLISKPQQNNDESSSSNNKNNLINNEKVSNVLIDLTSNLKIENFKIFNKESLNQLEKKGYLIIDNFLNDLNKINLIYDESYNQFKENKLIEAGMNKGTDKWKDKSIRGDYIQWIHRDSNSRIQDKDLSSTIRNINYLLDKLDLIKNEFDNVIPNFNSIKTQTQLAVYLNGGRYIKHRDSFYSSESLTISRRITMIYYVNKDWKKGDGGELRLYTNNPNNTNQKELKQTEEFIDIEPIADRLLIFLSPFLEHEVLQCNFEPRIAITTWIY

Regarding `O=C(O)CNC(=O)C(=O)O` [NOG], the Tm shift result on DdPhyA is “Ni(II) ions and N-oxalylglycine (a stable 2OG analog, Fig. S9) stabilize the enzymes”; at TgPhyA [1], “Ni(II) ions and N-oxalylglycine (a stable 2OG analog, Fig. S9) stabilize the enzymes”. In addition, the “X-ray crystallography, 2.02 Å” value on DdPhyA(60-284) was “the latter in a bidentate manner. The C-5 carboxylate of NOG is bound”.

Consider `O=C(O)CCC(=O)C(=O)O` [2OG], for which the 2OG turnover result at TgPhyA [2] is “TgPhyA exhibited substantial uncoupled 2OG turnover in the absence of substrate”.
